{"source": "patent US5346701A", "about": "“Transmucosal delivery of macromolecular drugs” (TheraTech, Inc., priority 1993, dated 1994)", "origin": "cited, not measured here", "key": {"[1]": {"conditions": "nasal membranes"}, "[2]": {"test_system": "antithrombin III (AT III)", "conditions": "clinically used heparin"}, "[3]": {"test_system": "delayed-typehypersensitivity"}, "platelets": {"test_system": "platelets", "conditions": "in vitro"}, "[4]": {"test_system": "vascular smooth muscle cells"}}, "data": [{"molecule": "C[C@H](CCC(=O)O)[C@H]1CC[C@H]2[C@@H]3[C@H](O)C[C@@H]4C[C@H](O)CC[C@]4(C)[C@H]3CC[C@]12C", "note": "[chenodeoxycholate]", "values": [{"measurement": "order of effectiveness as enhancer of insulin absorption", "setting": "[1]", "result": "deoxycholate<chenodeoxycholate<cholate<ursodeoxycholate"}]}, {"molecule": "C[C@H](CCC(=O)O)[C@H]1CC[C@H]2[C@@H]3[C@H](O)C[C@@H]4C[C@H](O)CC[C@]4(C)[C@H]3C[C@H](O)[C@]12C", "note": "[cholate]", "values": [{"measurement": "order of effectiveness as enhancer of insulin absorption", "setting": "[1]", "result": "deoxycholate<chenodeoxycholate<cholate<ursodeoxycholate"}]}, {"molecule": "C[C@H](CCC(=O)O)[C@H]1CC[C@H]2[C@@H]3[C@@H](O)C[C@@H]4C[C@H](O)CC[C@]4(C)[C@H]3CC[C@]12C", "note": "[ursodeoxycholate]", "values": [{"measurement": "order of effectiveness as enhancer of insulin absorption", "setting": "[1]", "result": "deoxycholate<chenodeoxycholate<cholate<ursodeoxycholate"}]}, {"molecule": "heparin", "values": [{"measurement": "proliferation of renal mesengial cells", "setting": "renal mesengial cells", "result": "inhibits the proliferation"}, {"measurement": "proportion of heparin having high affinity for AT III", "setting": "[2]", "result": "Approximately 33%"}, {"measurement": "acceleration of rate of thrombin inactivation", "setting": "thrombin", "result": "up to 2000 -fold"}, {"measurement": "angiogenesis", "setting": "angiogenesis", "result": "inhibits angiogenesis"}, {"measurement": "delayed-type hypersensitivity", "setting": "[3]", "result": "suppresses"}, {"measurement": "release of platelets", "setting": "platelets", "result": "enhances the release of platelets"}, {"measurement": "prolongation of partial thromboplastin time or release of plasma lipase activity", "setting": "colon of a baboon, without bile salt", "result": "not apparent"}, {"measurement": "activity (partial thromboplastin time / plasma lipase)", "setting": "with sodium cholate or deoxycholate in the formulation", "result": "significant activity was detected"}, {"measurement": "proliferation of vascular smooth muscle cells", "setting": "[4]", "result": "inhibits the proliferation"}]}]}
